Results: patent US6812036B2 (priority 2000, dated 2004)

Tested on: Antibody #1
Type: binding, mice

| SMILES | cross-reactivity |
| --- | --- |
| CC(=O)OC[C@]12[C@H](O)C(=O)C(C)=C[C@H]1O[C@@H]1[C@H](O)C[C@@]2(C)[C@]12CO2 [15-acetyl-deoxynivalenol] | 358% |
| CC(=O)OC[C@]12C[C@H](OC(=O)CC(C)C)C(C)=C[C@H]1O[C@@H]1[C@H](O)[C@@H](O)[C@@]2(C)[C@]12CO2 [HT-2 toxin] | 9% |
